Patent US12421257B2, “Compositions and methods for inhibiting group II intron RNA” (YALE UNIVERSITY, priority 2018, dated 2025)
≈ marks a conversion by molar mass, not a printed value. Entries after “also recorded” stand apart in the source; their conditions may differ.

Columns and labels:
ai5γ group II intron = assay: Radioanalytic self-splicing assay of SE RNA (Ki); type: biochemical, Saccharomyces cerevisiae; conditions: 8 mM MgCl2, 100 mM KCl, pH 7.5, 30° C.
Method: Internally labeled SE RNA (2 nM) was incubated with various concentrations of inhibitor compound under near-physiological conditions (in 50 mM MOPS, pH 7.5, 8 mM MgCl2, 100 mM KCl) at 30° C. Aliquots at different time points were quenched and analyzed on 5% denaturing polyacrylamide gel as previously described (Daniels et al., 1996, Journal of molecular biology, 256:31-49). Data were fit to a single-exponential equation to determine the first order rate constants (kobs). The latter were then plotted against the concentration of the inhibitor and fit to the equation for non-competitive inhibition to determine Ki values: kobs=kmax/(1+[I]/Ki), where kobs and kmax are the first order rate constants measured in the presence and in the absence of the inhibitor, respectively, [I] is the concentration of the inhibitor and Ki is the inhibition constant. Experiments were performed four times for API-014, three times for APY-090, Intronistat A, and Intronistat B and twice for the remaining compounds to ensure reproducibility. Data represent average±s.e.m.

C. parapsilosis = assay: MIC determination against C. parapsilosis; type: cell-based, Candida parapsilosis; conditions: Lodderomyces parapsilosis; RPMI-1640, 35° C. or 37° C., turbidity after 24 and 48 hours
Method: Minimal inhibitory concentrations (MICs) for C. parapsilosis were determined in a final volume of 100 μl. Fresh stock solutions of control antifungal drugs (Amphotericin B and Itraconazole) and of test compounds were prepared at 3.2 mg/ml and at 12.8 mg/ml respectively in DMSO. After placing the stock in the first well, solutions of test compounds and antifungal controls were serially diluted 1:2 with DMSO into the first […] successive wells of a 12-well row on a 96-well plate (as described above). After dilution, 2.5 μl from each of these 10 wells were transferred onto a separate 96-well plate and diluted with 122.5 μl of RPMI-1640 medium (Sigma). Wells 11 and 12 contained 2.5 μl DMSO and 122.5 μl of RPMI-1640 as a positive growth control (no compound) and sterility control (no inoculum added). A 50 μl volume was taken from each of the RPMI dilutions (wells 1-12) and transferred to the wells of a third 96-well plate (assay plate), where they were mixed with an equal volume (50 μl) of freshly prepared inoculum of C. parapsilosis in RPMI-1640 medium, set at a density to provide the 0.5×10^3 to 2.5×10^3 colony forming units per 1 mL (except for the sterility control). Sterility control was mixed with 50 μl of sterile medium.
The final concentration range of the assay was 0.25-128 μg/ml for test compounds and 0.0625-32 μg/ml for Amphotericin B and Itraconazole. The final concentration of DMSO was 1%. The assay plate was incubated at 35° C. or 37° C. and visually analyzed for turbidity after 24 and 48 hours of incubation. The lowest compound concentration at which no growth was apparent is reported as the MIC. All experiments were performed in triplicate.

[1] = tested on: ai5γ group II intron (D135 ribozyme); assay: Fluorescent D135 ribozyme cleavage assay (IC50); type: biochemical, Saccharomyces cerevisiae; conditions: for IC50: D135 ribozyme cleavage of substrate 17/2 DL, 100 mM MgCl2, 500 mM KCl, 37° C., 10 minutes
Method: The D135 ribozyme (Su et al., 2005, Nucleic Acids Res, 33:6674-6687), fluorescently labeled oligo substrate 17/2 DL (FIG. 1A-FIG. 1D) (both at 20 nM final concentrations in 50 mM MOPS, pH 7.0, 100 mM MgCl2, 0.5M KCl), and the test compounds (final concentration of 10 μM in 50 mM MOPS, pH 7.0, 100 mM MgCl2, 0.5M KCl) were aliquoted onto black non-binding 384-well plates (Corning 3757) using the multidrop combi (ThermoFisherScientific) and pintool (V & P Scientific). The reaction mixtures were incubated at 37° C. for 45 minutes, then the reaction was quenched with 100 mM EDTA and fluorescence intensity was analyzed on a Tecan Infinite multimode plate reader (λex 520 nm, λem 560 nm, 5 nm bandwidth). Data were normalized to untreated wells and wells lacking the D135 ribozyme, and percent of inhibition was calculated using ActivityBase (IDBS). The Z′-factor was calculated as described (Zhang et al., 1999, J Biomol Screen, 4:67-73): Z′=1−3×(σp+σn)/|μp−μn|, • where μp and σn are mean value and standard deviation for the positive control (substrate only), and where μn and σn are mean value and standard deviation for the negative control (no compound). The average Z′-factor from the screen was 0.83±0.03. IC50 Measurement for the Small Molecule Inhibition of the D135 Ribozyme Cleavage Reaction.
Black 96-well plates (Corning 3695) were filled with 50 μl of solution containing 20 nM D135 ribozyme, 20 nM double-labeled substrate 17/2 DL and small molecule inhibitor in 50 mM MOPS, pH 7.0, 100 mM MgCl2 and 500 mM KCl. Small molecule inhibitors were tested at 19 different concentrations ranging from 5 nM to 1 mM. Plates were incubated at 37° C. for 10 minutes, then reaction mixtures were quenched with 100 mM EDTA and analyzed on the Synergy H1 plate reader (BioTek). Each experiment was performed in triplicate. Data were fit to a 4-parameter logistic function c+(d−c)/(1+(x/a)^b), where a is the IC50, b is the slope parameter, c is the minimum response and d is the maximum response. Data are reported as average±s.e.m

HEK-293T cells = assay: Cytotoxicity in HEK-293T cells (Cell Titer Glo); type: cell-based, human; conditions: Homo sapiens, cytotoxicity, 24 hours with compound, read-out: IC50 HEK-293
Method: HEK-293T cells were cultured in Dulbecco's Modified Eagle's Medium (DMEM) (Gibco) supplemented with 10% Fetal Bovine Serum (FBS, Gibco) and 100 U/ml of Penicillin-Streptomycin (Gibco) at 37° C. and 5% CO2. For the cytotoxicity experiments, cells were aliquoted into black 96-well plates with a clear bottom (Corning 3603) at a concentration of 10,000 cells per well. The cells were grown at 37° C., 5% CO2 for 5-6 hours, then the medium was replaced with the same medium without FBS and cells were grown at 37° C., 5% CO2 for 24 hours. Freshly prepared stock solutions of test compounds (12.8 mg/ml in DMSO) were serially diluted 1:2 with DMSO into the first 11 successive wells of a 12-well row on a 96-well plate as described above. Well 12 was used as a growth control (no compound). […] After incubation, cell viability was determined using the luminescent Cell Titer Glo cell viability assay (Promega), in which 100 μl of the assay reagent was added to each well of the assay plate. After gentle shaking for 7-10 minutes, the plates were analyzed on a Synergy H1 plate reader (BioTek). Luminescence was plotted against the compound concentration and IC50 values were determined by fitting the data to a 4-parameter logistic function c+(d−c)/(1+(x/a)^b), where a is the IC50, b is the slope parameter, c is the minimum response and d is the maximum response. Experiments were replicated to ensure reproducibility.

Row | Structure (SMILES) | Ki (ai5γ group II intron) [µM] | MIC (C. parapsilosis) [µg/mL] | IC50 [1] [µM] | IC50 ([1]; listed as compound 1) [µM] | In vitro inhibitory activity, SAR statement (in words) ([1]; relative to parent scaffold) | IC50 (HEK-293T cells) [µg/mL]
1 | O=C1/C(=C/c2ccc(B(O)O)cc2)Oc2cc(O)cc(O)c21 [APY-006] | 55 | – | – | – | – | –
2 | O=C1/C(=C/c2ccc(O)c(O)c2)Oc2cc(O)cc(O)c21 [APY-007, (Z)-2-(3,4-Dihydroxybenzylidene)-4,6-dihydroxybenzofuran-3(2H)-one] | 156 ± 34 | > 128 | > 100 | – | nearly complete loss of activity; also recorded: inactivated both in vitro and in vivo | > 128
3 | O=C1/C(=C/c2cc(F)c(O)c(F)c2)Oc2cc(O)cc(O)c21 [APY-010] | 140 | > 128 | – | – | – | 0.55
4 | O=C1/C(=C/c2cc(O)c(O)c(O)c2)Oc2cc(O)ccc21 [APY-013] | 16.5 | 32 (≈ 112 µM) | 16.7 | – | – | 19
5 | COc1cccc(/C=N/NC(=O)c2ccc(B(O)O)cc2)c1O [APY-018] | 660 | – | – | – | – | –
6 | O=C(N/N=C/c1ccccc1O)c1cc(O)c(O)c(O)c1 [APY-021] | 9.4 | 32 (≈ 111 µM) | 14 | – | – | –
7 | O=C(N/N=C/c1ccc(O)cc1O)c1cc(O)c(O)c(O)c1 [APY-022] | 6.5 | 32 (≈ 105 µM) | 5.5 | – | – | 17.6
8 | COc1cc(/C=N/NC(=O)c2cc(O)c(O)c(O)c2)cc(O)c1O [APY-038] | 1.1 | 8 (≈ 23.9 µM) | 1.3 | – | – | 15.9
9 | COc1cc(CCC(=O)c2cc(O)c(O)c(O)c2)cc(OC)c1OC [APY-069] | 29 | 32 (≈ 91.9 µM) | 27 | – | – | > 128
10 | O=C(c1cc(O)c(O)c(O)c1)c1cc2cc(F)ccc2o1 [APY-070] | 1 | 32 (≈ 111 µM) | 4.2 | – | – | > 128
11 | O=C(c1cc(O)c(O)c(O)c1)c1cc2c(ccc3ccccc32)o1 [APY-071] | 0.15 | 16 (≈ 50 µM) | 0.3 | – | – | 6
12 | O=C1/C(=C/c2cc(O)c(O)c(O)c2)Oc2cc(O)cc(O)c21 [Compound 1, reference compound] | 2.1 ± 0.6 | – | 2.3 ± 0.4 | 2 | – | –

Now from value to compound, other results behind:

Row | Ki (ai5γ group II intron) [µM] | MIC (C. parapsilosis) [µg/mL] | IC50 [1] [µM] | IC50 ([1]; listed as compound 1) [µM] | Structure (SMILES) | In vitro inhibitory activity, SAR statement (in words) ([1]; relative to parent scaffold) | IC50 (HEK-293T cells) [µg/mL]
13 | – | 16 (≈ 37.7 µM) | 6 ± 2 | – | CN1CCC(CNC(=O)c2ccc3oc(C(=O)c4cc(O)c(O)c(O)c4)cc3c2)CC1 [NED-2023, N-((1-methylpiperidin-4-yl)methyl)-2-(3,4,5-trihydroxybenzoyl)-benzofuran-5-carboxamide] | – | 36
14 | – | 8 to 16 (≈ 28.5 to 57.1 µM) | > 1000 | – | CCCCNc1nc(-c2cc(O)c(O)c(O)c2)cs1 [NED-2034] | – | 22
15 | – | > 128 | 55 ± 4 | – | O=C(Nc1cc(O)c(O)c(O)c1)N1CCN(c2ccc(Cl)c(Cl)c2)CC1 [NED-2035] | – | 1.6
16 | – | 8 (≈ 24.1 µM) | 14 ± 1 | – | COc1ccc(/C=N/NC(=O)c2cc(O)c(O)c(O)c2)c(OC)c1 [NED-2036, N′-(2,4-dimethoxybenzylidene)-3,4,5-trihydroxybenzohydrazide] | – | 8.2
17 | – | 16 (≈ 47.3 µM) | 1.8 ± 0.5 | – | O=C(N/N=C/c1c(O)ccc2ccccc12)c1cc(O)c(O)c(O)c1 [NED-2037, (E)-3,4,5-trihydroxy-N′-((2-hydroxynaphthalen-1-yl)methylene)benzohydrazide] | – | 2.8
18 | – | 8 (≈ 16.2 µM) | > 1000 | – | Cc1[nH]c(/C=C/C(=O)c2cc(O)c(O)c(O)c2)c(C)c1C(=O)N1CCN(Cc2ccc(F)cc2)CC1 [NED-2040] | – | 7.5
19 | – | 4 to 8 (≈ 12.7 to 25.4 µM) | 4 ± 1 | – | CN(C)c1ccc(/C=N/NC(=O)c2cc(O)c(O)c(O)c2)cc1 [NED-2048, (E)-N′-(4-(dimethylamino)benzylidene)-3,4,5-trihydroxybenzohydrazide] | – | 9.8
20 | – | 2 to 4 (≈ 6.21 to 12.4 µM) | 3.3 ± 1 | – | O=C(N/N=C/c1cccc2ccccc12)c1cc(O)c(O)c(O)c1 [NED-2134, (E)-3,4,5-trihydroxy-N′-(naphthalen-1-ylmethylene)benzohydrazide] | – | 4.2
21 | – | 2 (≈ 6.21 µM) | 0.8 ± 0.2 | – | O=C(N/N=C/c1ccc2ccccc2c1)c1cc(O)c(O)c(O)c1 [NED-2135, (E)-3,4,5-trihydroxy-N′-(naphthalen-2-ylmethylene)benzohydrazide] | – | 2.4
22 | – | 2 (≈ 5.68 µM) | 1.35 ± 0.15 | – | COc1ccc2cc(/C=N/NC(=O)c3cc(O)c(O)c(O)c3)ccc2c1 [NED-2136] | – | 1
23 | – | 8 (≈ 22.7 µM) | 6 ± 1 | – | COc1ccc2ccccc2c1/C=N/NC(=O)c1cc(O)c(O)c(O)c1 [NED-2173, (E)-3,4,5-trihydroxy-N′-((2-methoxynaphthalen-1-yl)methylene)benzohydrazide] | – | 8.6
24 | – | 4 to 8 (≈ 10.6 to 21.3 µM) | 5 ± 1 | – | C#CCOc1ccc2ccccc2c1/C=N/NC(=O)c1cc(O)c(O)c(O)c1 [NED-2174, (E)-3,4,5-trihydroxy-N′-((2-(prop-2-yn-1-yloxy)naphthalen-1-yl)methylene)benzohydrazide] | – | 2.7
25 | – | 4 to 8 (≈ 9.31 to 18.6 µM) | 2.3 ± 0.8 | – | O=C(N/N=C/c1c(OCc2ccccn2)ccc2ccccc12)c1cc(O)c(O)c(O)c1 [NED-2175, (E)-3,4,5-trihydroxy-N′-((2-(pyridin-2-ylmethoxy)naphthalen-1-yl)methylene)benzohydrazide] | – | 14
